{"source": "patent US20240325328A1", "about": "“TREATMENT OF BRAIN […] CNS […] ILLUDINS OR HYDROXYLUREAMETHYL ACYLFULVENE” (Lantern Pharma Inc., priority 2021, published 2024)", "key": {"[1]": {"experiment": "Apparent BBB permeability in 3D in vitro blood brain barrier model", "assay_type": "in vitro ADME, human", "settings": "human, 3D BBB model", "source_text": "(§1) Hydroxy UreaMethyl Acylfulvene having a negative chirality or LP-184 permeates the blood brain barrier in vitro 3D model, which closely recapitulates the human blood brain barrier. This model mimics transport properties of the BBB due to the formation of tight junctions, higher expression of specific carriers, and/or great cell viability. This 3D in vitro model of the BBB created by co-culturing brain endothelial cells, with pericytes and astrocytes layered in an insert, improves endothelial cell polarization, and enhances the formation of tight junctions, provides better endothelial cell-to-cell contact that is important for barrier development, and prevents the dilution of secreted neurotrophic factors. These conditions collectively lead to the development of an in vitro model that mimics the BBB.\n(§2) This assay leverages the novel 3D BBB model that allows studying both compound transport across the barrier as well as the effect of compounds on the structure and function of the BBB. […] LP-184 was as effective as the standard of care drug TMZ in penetrating the blood brain barrier. Apparent BBB permeability measured for TMZ was 1.72*10^−4 cm/s at 30 minutes and for LP-184 was 1.53*10^−4 cm/s at 30 minutes (FIG. 1)."}, "[2]": {"test_system": "blood brain barrier in vitro 3D model (co-cultured brain endothelial cells, pericytes and astrocytes)", "experiment": "Apparent BBB permeability in 3D in vitro blood brain barrier model", "assay_type": "in vitro ADME, human", "settings": "3D BBB model, at 30 minutes", "source_text": "as §1, §2"}, "[3]": {"test_system": "blood brain barrier in vitro 3D model (co-cultured brain endothelial cells, pericytes and astrocytes)", "experiment": "Impact on cell viability and BBB integrity in 3D BBB model", "assay_type": "cell-based, human", "settings": "3D BBB model, compound treatment", "source_text": "as §1, §2"}, "[4]": {"experiment": "Pharmacokinetics of LP-184 in plasma, normal brain and brain tumor", "assay_type": "in vivo, mice"}, "[5]": {"test_system": "3D models of patient-derived xenograft (PDX) derived brain metastases of primary lung and breast cancers", "experiment": "Potency in 3D models of PDX-derived brain metastases", "assay_type": "cell-based", "settings": "72-hour treatment period, various brain metastasis models, range over models and testing conditions"}, "[6]": {"settings": "Contralateral Normal Brain, 4 mg/kg IV"}, "[7]": {"settings": "Peritumoral Normal Brain, 4 mg/kg IV"}}, "data": [{"smiles": "Cn1nnc2c(C(N)=O)ncn2c1=O", "note": "[TMZ, Temozolomide, reference compound]", "values": [{"measurement": "Papp at 30 min", "setting": "[1]", "result": 172, "unit": "×10⁻⁶ cm/s"}]}, {"smiles": "CC1=C(CN(O)C(N)=O)C2=C(C)C3(CC3)[C@@](C)(O)C(=O)C2=C1", "note": "[LP-184, Hydroxy UreaMethyl Acylfulvene]", "values": [{"measurement": "Apparent BBB permeability", "setting": "[2]", "result": "1.53*10^−4 cm/s"}, {"measurement": "BBB integrity", "setting": "[3]", "result": "BBB integrity was not compromised"}, {"measurement": "Impact on cell viability", "setting": "[3]", "result": "insignificant impact on cell viability"}, {"measurement": "Brain Tissue/Plasma Ratio", "setting": "[4]; Brain Tumor, 4 mg/kg IV", "result": 0.200}, {"measurement": "Half-Life", "setting": "[4]; Brain Tumor, 4 mg/kg IV", "result": 16.9, "unit": "min"}, {"measurement": "Tmax", "setting": "[4]; Brain Tumor, 4 mg/kg IV", "result": 5, "unit": "min"}, {"measurement": "Brain Tissue/Plasma Ratio", "setting": "[4]; [6]", "result": 0.077}, {"measurement": "Half-Life", "setting": "[4]; [6]", "result": 26.6, "unit": "min"}, {"measurement": "Tmax", "setting": "[4]; [6]", "result": 15, "unit": "min"}, {"measurement": "AUC0-t", "setting": "[4]; Contralateral Normal Brain, 4 mg/kg IV, Mean ± SEM", "result": "123 ± 15.9", "unit": "ng·h/g"}, {"measurement": "Brain Tissue/Plasma Ratio", "setting": "[4]; [7]", "result": 0.103}, {"measurement": "Half-Life", "setting": "[4]; [7]", "result": 23, "unit": "min"}, {"measurement": "Tmax", "setting": "[4]; [7]", "result": 15, "unit": "min"}, {"measurement": "AUC0-t", "setting": "[4]; Peritumoral Normal Brain, 4 mg/kg IV, Mean ± SEM", "result": "165 ± 11.6", "unit": "ng·h/g"}, {"measurement": "Half-Life", "setting": "[4]; Plasma, 4 mg/kg IV", "result": 14.2, "unit": "min"}, {"measurement": "Tmax", "setting": "[4]; Plasma, 4 mg/kg IV", "result": 5, "unit": "min"}, {"measurement": "AUC0-t", "setting": "[4]; Plasma, 4 mg/kg IV, Mean ± SEM", "result": "1592 ± 48.7", "unit": "ng·h/mL"}, {"measurement": "Cmax", "setting": "[4]; Plasma, 4 mg/kg IV, Mean ± SEM", "result": "3438 ± 125^ ng/ml"}, {"measurement": "brain tumor exposure relative to plasma", "setting": "[4]; based on AUC", "result": "~20", "unit": "%"}, {"measurement": "brain tumor exposure compared to normal brain", "setting": "[4]; higher in brain tumor", "result": "~2", "unit": "fold"}, {"measurement": "clearance", "setting": "[4]; mice with tumors", "result": 39.82, "unit": "mL/min/kg"}, {"measurement": "clearance", "setting": "[4]; non-tumored mice", "result": 88.07, "unit": "mL/min/kg"}, {"measurement": "IC50", "setting": "[5]", "result": "0.088 to 4.28", "unit": "µM"}]}]}
